Each structure is given as a SMILES string. Bounds are passed on as bounds.

For the assay, the target named is Factor D (Homo sapiens (Human), UniProt P00746). Briefly: Factor D esterolytic assay. In kind it is biochemical. The note with it: Z-Lys-SBzl substrate, 100 mM HEPES, 500 mM NaCl, pH 7.5, 10% DMSO; tested a minimum of three times; read-out: Measured Ki (IC50) Value for Compounds: IC50. The method, boiled down: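 Buffer was 100 mM HEPES, 500 mM NaCl, pH 7.5 with 10% DMSO. Compound and Factor D were combined, then Z-Lys-SBzl (1.29 mM) was added either at once or following room-temperature incubation. Rates came from DTNB colour at 405 nm minus 690 nm over 600 s, with percent inhibition giving IC50 over at least three tests.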
Chain of Factor D (P00746 26-253): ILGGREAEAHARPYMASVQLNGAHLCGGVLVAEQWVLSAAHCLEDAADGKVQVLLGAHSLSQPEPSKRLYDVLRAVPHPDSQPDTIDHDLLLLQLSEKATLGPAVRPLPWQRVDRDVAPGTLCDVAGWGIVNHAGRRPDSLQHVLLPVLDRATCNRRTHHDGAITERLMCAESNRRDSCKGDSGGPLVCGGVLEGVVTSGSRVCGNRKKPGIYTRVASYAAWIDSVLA
A word on the IC50: it is the concentration needed to halve the response being measured. `NCc1cccc(-c2ccc3oc(-c4ccc(F)cc4)c(COc4ccccc4CC(=O)O)c3c2)c1` [Compound 167e, 2-(2-((5-(3-(aminomethyl)phenyl)-2-(4-fluorophenyl)benzofuran-3-yl)methoxy)phenyl)acetic acid]: the IC50 is less than 1000 nM.
To `NCc1cccc(-c2cc(NC[C@@H]3CCCO3)c3occ(COc4ccccc4CC(=O)O)c3c2)c1` [Compound 275d, (S)-2-(2-((5-(3-(aminomethyl)phenyl)-7-(((tetrahydrofuran-2-yl)methyl)amino)benzofuran-3-yl)methoxy)phenyl)acetic acid] belongs less than 1000 nM; to `COc1ccc(CC(=O)O)c(OCc2c(C(O)C(F)(F)F)oc3ccc(-c4cccc(CN)c4)cc23)c1` (centres unmarked) [Compound 216c, 2-(2-((5-(3-(aminomethyl)phenyl)-2-(2,2,2-trifluoro-1-hydroxyethyl)benzofuran-3-yl)methoxy)-4-methoxyphenyl)acetic acid], less than 1000 nM; to `NCc1cccc(-c2cccc3cc(COc4ccccc4CCC(=O)O)ccc23)c1` [Compound 43c, 3-(2-((5-(3-(aminomethyl)phenyl)naphthalen-2-yl)methoxy)phenyl)propanoic acid], greater than 10000 nM.
To `CC(C)n1nc(COc2c(C#N)cccc2CC(=O)O)c2cc(-c3cccc(CN)c3)ccc21` [Compound 305c, 2-(2-((5-(3-(aminomethyl)phenyl)-1-isopropyl-1H-indazol-3-yl)methoxy)-3-cyanophenyl)acetic acid] belongs less than 1000 nM; to `NCc1cccc(-c2cccc3cc(COc4ccccc4CCC(=O)O)oc23)c1` [Compound 35c, 3-(2-((7-(3-(aminomethyl)phenyl)benzofuran-2-yl)methoxy)phenyl)propanoic acid], greater than 10000 nM.
To `Cc1c(CN)cccc1-c1ccc2c(c1)c(COc1ccccc1CC(=O)O)nn2C(C)C` [Compound 330c, 2-(2-((5-(3-(aminomethyl)-2-methylphenyl)-1-isopropyl-1H-indazol-3-yl)methoxy)phenyl)acetic acid] belongs less than 1000 nM; to `NCc1cccc(-c2cc3c(COc4ccccc4CC(=O)O)csc3c3occc23)c1` [Compound 232h, 2-(2-((4-(3-(aminomethyl)phenyl)thieno[3,2-g]benzofuran-6-yl)methoxy)phenyl)acetic acid], less than 1000 nM; to `COc1ccc(CC(=O)O)c(OCc2c(C)oc3ccc(-c4cccc(CN)c4)cc23)c1` [Compound 138c, 2-(2-((5-(3-(aminomethyl)phenyl)-2-methylbenzofuran-3-yl)methoxy)-4-methoxyphenyl)acetic acid], less than 1000 nM.
Regarding `COc1c(-c2cc3c(COc4ccccc4CC(=O)O)cccc3o2)ccnc1CN` [Compound 329d, 2-(2-((2-(2-(aminomethyl)-3-methoxypyridin-4-yl)benzofuran-4-yl)methoxy)phenyl)acetic acid], the IC50 is 1000 to 10000 nM.
To `NCc1cccc(-c2cc3c(COc4ccccc4CC(=O)O)coc3c3ccoc23)c1F` [Compound 287b, 2-(2-((5-(3-(aminomethyl)-2-fluorophenyl)benzo[1,2-b:3,4-b′]difuran-3-yl)methoxy)phenyl)acetic acid] belongs less than 1000 nM; to `NCc1cccc(-c2ccc3c(COc4ccccc4CC(=O)O)coc3c2)c1F` [Compound 95b, 2-(2-((6-(3-(aminomethyl)-2-fluorophenyl)benzofuran-3-yl)methoxy)phenyl)acetic acid], greater than 10000 nM; to `NCc1cccc(-c2cc(Cl)cc3c(COc4ccccc4CC(=O)O)coc23)c1` [Compound 193b, 2-(2-((7-(3-(aminomethyl)phenyl)-5-chlorobenzofuran-3-yl)methoxy)phenyl)acetic acid], 1000 to 10000 nM.
For the molecule `CCCCC(C(=O)O)c1ccccc1OCc1nn(C(C)C)c2ccc(-c3cccc(CN)c3)cc12` (centres unmarked) [Compound 312f, 2-(2-((5-(3-(aminomethyl)phenyl)-1-isopropyl-1H-indazol-3-yl)methoxy)phenyl)hexanoic acid], the IC50 is 1000 to 10000 nM.

The values are drawn from patent US20250186391A1, “ORAL COMPLEMENT FACTOR D INHIBITORS” (BioCryst Pharmaceuticals, Inc., priority 2019, published 2025).
